Reference: article PMC7534274 (Journal of Enzyme Inhibition and Medicinal Chemistry, 2020)
Read-outs that look alike come from different tables or passages of the source.

Legend:
hCA IX = target: T1, hCA IX (Homo sapiens, UniProt Q16790); assay: stopped-flow CO2 hydrase assay; assay type: biochemical
T1 construct: gene CA9; recombinant, obtained in-house; tumour-associated isoform
Excerpt: stopped-flow CO2 hydrase assay on hCA IX

hCA VII = target: T2, hCA VII (Homo sapiens, UniProt P43166); assay: stopped-flow CO2 hydrase assay; assay type: biochemical; details: read-out: hCA I
T2 construct: gene CA7; recombinant, obtained in-house; cytosolic isoform
Excerpt: stopped-flow CO2 hydrase assay on hCA VII

hCA II = target: T3, hCA II (Homo sapiens, UniProt P00918); assay: stopped-flow CO2 hydrase assay; assay type: biochemical; details: read-out: hCA I
T3 construct: gene CA2; recombinant, obtained in-house; cytosolic isoform
Excerpt: stopped-flow CO2 hydrase assay on hCA II

hCA XII = target: T4, hCA XII (Homo sapiens, UniProt O43570); assay: stopped-flow CO2 hydrase assay; assay type: biochemical; details: […] HEPES pH […] Na2SO4, CO2 substrate; […] h preincubation
T4 construct: gene CA12; recombinant, obtained in-house; tumour-associated isoform
Excerpt: (§1) stopped-flow CO2 hydrase assay on hCA XII

hCA I = target: T5, hCA I (Homo sapiens, UniProt P00915); assay: stopped-flow CO2 hydrase assay; assay type: biochemical
T5 construct: gene CA1; recombinant, obtained in-house; cytosolic isoform
Excerpt: stopped-flow CO2 hydrase assay on hCA I

[1] = stopped-flow CO2 hydrase assay; assay type: biochemical, Homo sapiens; details: read-out: hCA I
Excerpt: as §1

[2] = […] HEPES pH […] Na2SO4, CO2 substrate, […] h preincubation

T2 sequence (P43166 whole entry, canonical isoform): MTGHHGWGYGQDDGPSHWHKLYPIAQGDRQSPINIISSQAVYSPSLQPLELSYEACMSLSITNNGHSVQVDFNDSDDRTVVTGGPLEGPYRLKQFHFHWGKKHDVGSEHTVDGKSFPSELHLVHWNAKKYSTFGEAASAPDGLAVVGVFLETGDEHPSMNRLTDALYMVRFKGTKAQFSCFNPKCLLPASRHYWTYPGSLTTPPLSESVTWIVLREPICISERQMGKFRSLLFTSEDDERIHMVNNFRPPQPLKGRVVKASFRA
T5 sequence (P00915 2-261): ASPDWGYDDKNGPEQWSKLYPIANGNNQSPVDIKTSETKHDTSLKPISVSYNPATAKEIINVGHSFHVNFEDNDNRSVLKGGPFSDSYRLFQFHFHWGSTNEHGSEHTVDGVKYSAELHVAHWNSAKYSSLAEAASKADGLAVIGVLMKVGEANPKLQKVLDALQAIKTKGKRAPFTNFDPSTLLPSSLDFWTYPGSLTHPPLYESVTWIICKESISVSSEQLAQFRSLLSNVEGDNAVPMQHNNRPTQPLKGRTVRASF
T4 sequence (O43570 25-354 limits assumed): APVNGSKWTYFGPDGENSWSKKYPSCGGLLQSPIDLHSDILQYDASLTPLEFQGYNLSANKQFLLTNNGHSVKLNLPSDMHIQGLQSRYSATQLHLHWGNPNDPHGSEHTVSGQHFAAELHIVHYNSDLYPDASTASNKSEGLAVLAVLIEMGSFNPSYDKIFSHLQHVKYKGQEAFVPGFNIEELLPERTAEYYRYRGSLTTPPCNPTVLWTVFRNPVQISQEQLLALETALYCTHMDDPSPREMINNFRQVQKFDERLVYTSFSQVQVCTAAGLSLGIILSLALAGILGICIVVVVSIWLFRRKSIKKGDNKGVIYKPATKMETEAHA

| Ki (hCA IX; [2]) [µM] | Ki (hCA VII) [µM] | Ki (hCA II) [µM] | Ki (hCA XII) [µM] | Ki (hCA I) [µM] | Ki (hCA IX) [µM] | Ki [1] [µM] | SMILES |
| --- | --- | --- | --- | --- | --- | --- | --- |
| 0.0289 | > 10 | > 10 | 0.0926 | > 10 |  |  | O=C(Cc1ccccc1Nc1c(Cl)cccc1Cl)NCCOc1ccc2oc(=O)ccc2c1 [compound 1, 6-substituted coumarin containing diclofenac] |
| 0.0235 | > 10 |  |  | > 10 |  |  | CC(C(=O)NCCOc1ccc2oc(=O)ccc2c1)c1ccc(-c2ccccc2)c(F)c1 (centres unmarked) [compound 2, 6-substituted coumarin containing flurbiprofen] |
| 0.0897 | > 10 | > 10 | 0.0809 | > 10 |  |  | O=C(Cc1ccccc1Nc1c(Cl)cccc1Cl)NCCOc1ccc2ccc(=O)oc2c1 [compound 3, 7-substituted coumarin containing diclofenac] |
|  | > 10 | > 10 |  | > 10 | 0.159 | > 10 | CC(C(=O)NCCOc1ccc2ccc(=O)oc2c1)c1ccc(-c2ccccc2)c(F)c1 (centres unmarked) [compound 4, 7-substituted coumarin containing flurbiprofen] |
|  |  |  |  |  | 1.02 |  | NS(=O)(=O)Nc1cccc(S(=O)(=O)NCCC(=O)N2CCN(C(c3ccccc3)c3ccccc3)CC2)c1 [compound 5, benzhydryl piperazine derivative with beta-alanine spacer (meta benzenesulfonamide)] |
|  |  |  |  |  | 0.296 |  | NS(=O)(=O)Nc1cccc(S(=O)(=O)N2CCCC(C(=O)N3CCN(C(c4ccc(F)cc4)c4ccc(F)cc4)CC3)C2)c1 (centres unmarked) [compound 6, fluorinated benzhydryl piperazine derivative with nipecotic acid spacer (meta benzenesulfonamide)] |
|  |  |  |  |  | > 10 |  | NS(=O)(=O)Nc1ccccc1S(=O)(=O)N1CCCC(C(=O)N2CCN(C(c3ccccc3)c3ccccc3)CC2)C1 (centres unmarked) [compound 7, benzhydryl piperazine derivative with nipecotic acid spacer (ortho)] |
|  |  |  |  |  | 1.41 |  | NS(=O)(=O)Nc1ccc(S(=O)(=O)N2CCCC(C(=O)N3CCN(C(c4ccccc4)c4ccccc4)CC3)C2)cc1 (centres unmarked) [compound 8, benzhydryl piperazine derivative with nipecotic acid spacer (para)] |
|  |  |  |  |  | 0.902 |  | NS(=O)(=O)Nc1ccc(S(=O)(=O)N2CCCC(C(=O)N3CCN(C(c4ccc(F)cc4)c4ccc(F)cc4)CC3)C2)cc1 (centres unmarked) [compound 9, fluorinated benzhydryl analogue of 8 (para)] |
